The values that follow come from paper PMC9995496, “A screen for MeCP2-TBL1 interaction inhibitors using a luminescence-based assay” (Scientific Reports, 2023).

One assay deals with T1, TBLR1 (Homo sapiens, UniProt Q9BZK7).
T1 sequence (Q9BZK7 1-514): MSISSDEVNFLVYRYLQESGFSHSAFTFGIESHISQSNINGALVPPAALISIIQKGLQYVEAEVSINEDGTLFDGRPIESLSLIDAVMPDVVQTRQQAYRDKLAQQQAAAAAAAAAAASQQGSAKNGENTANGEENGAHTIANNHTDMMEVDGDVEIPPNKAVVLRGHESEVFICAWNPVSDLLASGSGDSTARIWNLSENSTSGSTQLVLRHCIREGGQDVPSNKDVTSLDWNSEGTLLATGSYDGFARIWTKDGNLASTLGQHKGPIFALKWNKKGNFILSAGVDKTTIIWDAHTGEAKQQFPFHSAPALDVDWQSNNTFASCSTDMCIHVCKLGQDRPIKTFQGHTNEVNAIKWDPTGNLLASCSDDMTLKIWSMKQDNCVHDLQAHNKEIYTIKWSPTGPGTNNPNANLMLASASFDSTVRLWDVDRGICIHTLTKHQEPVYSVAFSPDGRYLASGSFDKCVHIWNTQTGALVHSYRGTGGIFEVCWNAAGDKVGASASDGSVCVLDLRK
As to the kind of experiment: MeCP2 peptide SPOT array probed with recombinant HIS6-tagged TBLR1. The assay is classed as binding. The following applies: recombinant HIS6-tagged TBLR1 2 µM. How it is done:
The Z-factor is a statistic frequently used to assess the suitability of an assay for high throughput screening. We calculated the Z-factor of our assay in 384-well plate format using a short 12 residue MeCP2 NID derived-peptide variant as positive control and DMSO as negative control.
Western blotting was performed using antibodies against NanoLuc (Promega), MeCP2 (Sigma, M6818) and Sin3A (Abcam, Ab3479). […] The biotin at the N-terminus of these peptides was not relevant to the experiments in this work. […] The array membrane was incubated with recombinant HIS6‐tagged TBLR1 (2 µM) and immunodetection was performed with anti-HIS antibody (Sigma, H1029). Uniform synthesis efficiency across the array was ascertained by UV absorption. […] Note the shorter N-terminus and longer C-terminus of this peptide compared to the sequences used on the SPOT array. UMT026-2 was used at 50 µM when calculating the Z-factor[39].
The wild-type amino acids at these positions (Pro, Ile, Lys and Lys) make directs contacts with TBLR1. Arrows denote spots with increased binding and red dots indicate the wild-type amino acid.

The target in assay [1] is T2, MeCP2-TBL1 interaction (MeCP2-SmBiT / TBL1-LgBiT) (Mus musculus, UniProt Q9QXE7).
T2 construct: expressed in transfected cells; crude lysate used as a cell-free assay
T2 sequence (Q9QXE7 166-527): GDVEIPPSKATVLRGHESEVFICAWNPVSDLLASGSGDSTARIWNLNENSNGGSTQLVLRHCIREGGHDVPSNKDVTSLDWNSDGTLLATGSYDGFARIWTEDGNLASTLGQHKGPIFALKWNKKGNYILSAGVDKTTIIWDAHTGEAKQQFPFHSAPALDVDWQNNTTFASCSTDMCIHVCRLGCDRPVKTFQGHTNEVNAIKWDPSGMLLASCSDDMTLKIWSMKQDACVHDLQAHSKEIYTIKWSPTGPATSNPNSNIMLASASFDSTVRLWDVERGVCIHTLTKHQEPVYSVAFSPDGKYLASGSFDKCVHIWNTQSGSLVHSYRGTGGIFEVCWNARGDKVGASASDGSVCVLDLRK
The assay is described as follows: MeCP2-TBL1 NanoLuc luciferase complementation assay (cell-free, extracts of transfected HEK293 cells). The settings on record: dose response 0.3–60 μM, triplicate, 30 min, luminescence normalized to DMSO; read-out: IC50, inhibition of MeCP2-TBL1 luminescence signal. Format: binding, human. The procedure, abridged: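 Cell-free split NanoLuc: lysate of HEK293 cells co-expressing the MeCP2 C-terminal half-SmBiT and TBL1 WD domain-LgBiT, mixed 1:1 with furimazine. After 30 min at room temperature, luminescence was plate-median normalized.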

As a reminder, the IC50 is the concentration that inhibits the measured activity by half.

For “Ac-ETVLPIYKRKTR-NH2 [K304Y mutant peptide]”, the “TBL1/TBLR1 binding on peptide SPOT array relative to wild type” value at TBLR1 is on record as “stronger TBL1/TBLR1 binder”. Further, in assay [1], the IC50 is about 40 µM.
